The source made the active and inactive calls.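 The calls were made as follows: active = compounds giving half or more protection of infected cells from virus-caused growth loss, again on retest; inactive = the rest.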
Tested on: CEM cells HIV-1 protection, formazan growth assay
Experiment: NCI AIDS Antiviral Assay
Details: for IC50: measured here: growth of uninfected CEM cells
Method in brief: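 Category rules: moderately active means at least 50% protection on retest, and confirmed active means 100% protection reproducibly. The underlying data came from a formazan growth assay in HIV-1-infected CEM cells.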

SMILES	outcome	EC50 [µM]	IC50 [µM]
COC(=O)C1(C(C)C)CCc2c(OC)ccc(OC)c2C1=O (stereo unspecified)	inactive	–	–
COc1ccccc1NC(=O)CC(=O)N1N=C(N2c3ccccc3Sc3ccccc32)CC1c1ccccc1 (stereo unspecified)	–	> 200	> 200
O=S1(=O)C[C@@H](NCc2ccccc2)[C@H](NCc2ccccc2)C1	–	> 200	> 200
Cc1ccccc1NC(=O)CC(=O)N1N=C(N(CCC#N)c2ccccc2Cl)CC1c1ccccc1 (stereo unspecified)	–	> 263	> 263
CC1(C)CCCC2OC2CCC(C)(C)C1=O (stereo unspecified)	–	> 200	> 200
COc1ccc(C)cc1S(=O)(=O)c1c(Cl)cccc1[N+](=O)[O-]	–	> 200	> 200
CC(C)(C)CC1=CC(=O)C(C2=CC(=O)C(CC(C)(C)C)=CC2=O)=CC1=O	–	> 2	> 2
Cc1cccc(/C=N/NC(=S)NCc2ccccn2)n1	–	> 200	29.5
O=C1OCSc2ccccc21	–	> 1070	178
NS(=O)(=O)c1ccc(N=NC2Sc3nc4ccccc4n3C2=O)cc1 (stereo unspecified)	inactive	–	–
CC1CN=C(Nc2ccc(F)cc2F)S1 (stereo unspecified)	–	> 200	> 200
COc1ccc2c3c([nH]c2c1[N+](=O)[O-])C(C)N(C(=O)/C=C/c1ccccc1)CC3 (stereo unspecified)	inactive	–	–
CC(C)(c1cccs1)c1cscc1C(=O)O	–	> 200	> 200
O=C(c1ccccc1)N1C(=S)N(c2ccc([N+](=O)[O-])cc2)C(=Nc2ccccc2)C1=Nc1ccccc1	–	> 200	1
CCOC(=O)N(C)C1(c2ccccc2)CCN(CCCC(=O)c2ccc(F)cc2)CC1	–	> 200	83.2
Cc1ccc(C(=O)O/N=C2/CCC/C2=C\c2ccccc2)cc1	inactive	–	–
Clc1ncc(Cl)c(Cl)n1	inactive	–	–
Cc1ccnc(NS(=O)(=O)c2ccc(N=Nc3c(N)n(C)c(=O)n(C)c3=O)cc2)n1	inactive	–	–
C/C(=N\Nc1ccc2ccccc2n1)c1ccccn1	–	> 0.2	0.11
COc1ccc(C(C2=C(O)COC2=O)c2cc3c(cc2O)OCO3)cc1OC (stereo unspecified)	–	> 200	132
OCC(O)C1OCOC2COCOC21 (stereo unspecified)	–	> 200	> 200
O=C(NCCCCCCNC(=O)n1cc(F)c(=O)[nH]c1=O)NCCCOCCOCCCNC(=O)C(O)C(O)C(O)C(O)CO (stereo unspecified)	inactive	–	–

SMILES	outcome	EC50 [µM]	IC50 [µM]
Nc1c(Cl)ncnc1NCCCNc1ncnc(Cl)c1N	inactive	–	–
COC(=S)SSC(=S)NCCNC(=S)SSC(=S)OC	–	> 200	9.55
CC1(C)NN=C(SCc2ccccc2)NC1=O	–	40.7	145
CCCCCCCCCCCCCCCC(=O)Nc1ccn(C2CSC(COP(=O)(O)OC3CC(n4ccc(NC(=O)CCCCCCCCCCCCCCC)nc4=O)OC3CO)O2)c(=O)n1 (stereo unspecified)	–	9.55	> 200
Nc1ccc(/C=C/c2ccnc3ccccc23)c(N)c1	–	0.0631	79.4
CCCCCCCCCCCCCCCCOP(=O)(O)OP(=O)(O)OCC1OC(n2ccc(N)nc2=O)CC1O (stereo unspecified)	–	> 100	> 100
CC(C#N)(NO)C(C)(C#N)NO (stereo unspecified)	–	> 200	> 200
Clc1nc(Cl)nc(-c2cccn2-c2ccccc2)n1	–	> 200	129
COc1ccc(N=Nc2c(C)c(C#N)c(=S)n(C3OC(COC(C)=O)C(OC(C)=O)C(OC(C)=O)C3OC(C)=O)c2-c2ccccc2)cc1 (stereo unspecified)	–	> 200	126
CCN=C(N)CSS(=O)(=O)O	–	> 200	> 200
CC1=CC2CCC1(C)C/C2=C(/C)OC=O (stereo unspecified)	inactive	–	–
COc1cccc(Nc2nc(N)nc(N)c2N)c1	–	> 200	26.3
CCOc1ccc(Nc2nc(N)nc(N)c2N)cc1	–	> 200	66.1
O=C1CN(Cc2ccccc2)CC(=O)N2Cc3ccccc3CN12	inactive	–	–
CC(C)(Sc1cc(C(C)(C)C)c(O)c(C(C)(C)C)c1)Sc1cc(C(C)(C)C)c(O)c(C(C)(C)C)c1	–	> 26.3	> 26.3
CC(C)=CC(=O)C/C(=N\NC(N)=S)C(=O)Nc1ccc(Cl)cc1	–	> 37.2	> 37.2
CC(C)(O)[C@@H]1CC[C@](C)(C2[C@@H](O)C[C@@]3(C)C4C[C@H](OC5OCC(O)C(O)C5O)[C@H]5C(C)(C)[C@@H](OC6OCC(O)C(O)C6OC6OCC(O)C(O)C6O)CC[C@@]56C[C@@]46CC[C@]23C)O1 (stereo partly specified)	–	> 200	> 200
COc1ccc2c(c1)C1OCCNC1CC2 (stereo unspecified)	–	> 200	> 200
N#Cc1ccc(/C=C/C(=O)c2ccccc2)cc1	–	> 30.9	14.5
O=C(CCCCCCCCC(=O)NN1C(=O)/C(=C\c2ccc(O)c(O)c2)SC1c1c(O)ccc2ccccc12)NN1C(=O)C(=Cc2ccc(O)c(O)c2)SC1c1c(O)ccc2ccccc12 (stereo unspecified)	–	> 200	1
COc1cc(/C=C/C=C2\CC(C)C/C(=C\C=C\c3ccc(O)c(OC)c3)C2=O)ccc1O (stereo unspecified)	–	> 200	1.41
